{
  "source": "patent US20020122795A1",
  "about": "“Compositions containing gangliosides for use in the treatment of skin disorders” (priority 2000, published 2002)",
  "key": {"Integrin avb3": {"molecular_target": "Integrin avb3 (Homo sapiens, UniProt P05106+P06756)", "sequence (P06756 31-889 limits assumed)": "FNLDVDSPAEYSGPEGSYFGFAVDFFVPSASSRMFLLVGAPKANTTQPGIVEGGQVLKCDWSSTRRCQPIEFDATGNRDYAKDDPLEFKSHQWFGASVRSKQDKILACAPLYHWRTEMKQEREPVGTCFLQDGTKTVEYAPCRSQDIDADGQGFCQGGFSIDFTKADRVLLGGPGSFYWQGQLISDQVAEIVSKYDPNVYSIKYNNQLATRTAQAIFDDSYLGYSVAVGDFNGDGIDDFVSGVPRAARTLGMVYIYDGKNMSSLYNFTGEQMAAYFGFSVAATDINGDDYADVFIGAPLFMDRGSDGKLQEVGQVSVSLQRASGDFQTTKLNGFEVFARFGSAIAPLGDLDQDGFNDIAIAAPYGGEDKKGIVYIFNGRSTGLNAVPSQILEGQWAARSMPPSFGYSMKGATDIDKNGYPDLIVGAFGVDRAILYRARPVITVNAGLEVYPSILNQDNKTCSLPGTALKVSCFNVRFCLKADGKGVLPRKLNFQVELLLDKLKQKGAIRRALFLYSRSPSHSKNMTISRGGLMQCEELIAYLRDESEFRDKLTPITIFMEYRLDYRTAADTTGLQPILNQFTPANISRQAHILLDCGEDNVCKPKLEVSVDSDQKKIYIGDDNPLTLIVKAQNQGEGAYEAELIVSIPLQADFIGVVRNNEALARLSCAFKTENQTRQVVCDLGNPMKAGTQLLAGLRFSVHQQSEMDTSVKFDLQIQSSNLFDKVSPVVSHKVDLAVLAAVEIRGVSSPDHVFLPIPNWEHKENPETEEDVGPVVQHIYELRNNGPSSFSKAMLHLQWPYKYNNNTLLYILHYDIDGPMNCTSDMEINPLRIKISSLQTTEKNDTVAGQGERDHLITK", "sequence (P06756 891-1048 limits assumed)": "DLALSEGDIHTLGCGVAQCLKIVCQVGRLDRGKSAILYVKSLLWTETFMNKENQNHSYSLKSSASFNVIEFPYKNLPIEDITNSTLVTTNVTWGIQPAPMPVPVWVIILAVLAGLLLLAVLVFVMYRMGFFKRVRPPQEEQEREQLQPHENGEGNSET", "sequence (P05106 27-788)": "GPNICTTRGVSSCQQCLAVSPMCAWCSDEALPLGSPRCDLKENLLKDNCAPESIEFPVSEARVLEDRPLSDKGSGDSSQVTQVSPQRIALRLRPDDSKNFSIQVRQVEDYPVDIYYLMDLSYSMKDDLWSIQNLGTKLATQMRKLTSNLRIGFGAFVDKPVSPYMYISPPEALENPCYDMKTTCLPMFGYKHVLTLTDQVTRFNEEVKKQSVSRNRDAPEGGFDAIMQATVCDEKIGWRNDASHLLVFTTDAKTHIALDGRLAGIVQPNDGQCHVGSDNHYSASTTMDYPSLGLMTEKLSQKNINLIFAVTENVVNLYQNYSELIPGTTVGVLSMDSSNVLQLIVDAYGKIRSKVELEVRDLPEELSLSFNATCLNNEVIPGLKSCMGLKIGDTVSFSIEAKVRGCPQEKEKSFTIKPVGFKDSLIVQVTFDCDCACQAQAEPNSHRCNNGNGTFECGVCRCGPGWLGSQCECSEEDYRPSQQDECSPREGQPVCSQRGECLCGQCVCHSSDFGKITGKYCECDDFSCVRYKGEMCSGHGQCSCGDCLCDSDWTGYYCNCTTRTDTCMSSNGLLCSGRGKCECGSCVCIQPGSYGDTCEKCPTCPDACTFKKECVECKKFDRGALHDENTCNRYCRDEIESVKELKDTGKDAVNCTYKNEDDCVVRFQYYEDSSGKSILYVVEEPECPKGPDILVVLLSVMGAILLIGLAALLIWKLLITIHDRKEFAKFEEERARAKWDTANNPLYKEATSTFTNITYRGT", "test": "Binding of ganglioside to integrin avb3"}, "adhesion to vitronectin": {"system": "adhesion to vitronectin", "test": "Adhesion to vitronectin", "type": "cell-based", "from_the_text": "(§1) The ganglioside specifically interacts through carbohydrate moieties, with preference for the a5 subunit of the a5b1. […] Although any interaction between ganglioside and integrin b1 is much weaker, GT1b is able to bind b1 and, by doing so, inhibits b1 phosphorylation and serine/threonine phosphorylation."}, "[1]": {"system": "keratinocytes and keratinocyte-derived cells", "test": "Adhesion of keratinocytes and keratinocyte-derived cells to fibronectin", "type": "cell-based", "settings": "fibronectin substrate", "from_the_text": "(§2) Keratinocyte motility on a fibronectin substrate is critical in the reepithelialization of healing wounds, and in the spread of cutaneous malignancy. We discovered that gangliosides GT1b and GD3 inhibit the adhesion to and migration of keratinocytes and keratinocyte-derived cells on fibronectin (See, Paller, A. S., et al., J. Invest. Dermatol., 105:237-242 (1995); Sung, C-C., et al., Exp. Cell Res., 239:311-319 (1998); Wang, X-Q, et al., J. Biol. Chem., 276(48):44504-44511 (2001) each incorporated by reference). Conversely, endogenous depletion of gangliosides through sialidase gene modulation leads to increased adhesion of the cells to fibronectin and vitronection. Gangliosides also trigger the apoptosis of keratinocytes when plated on a fibronectin matrix."}, "[2]": {"system": "keratinocytes and keratinocyte-derived cells", "test": "Migration of keratinocytes and keratinocyte-derived cells on fibronectin", "type": "cell-based", "settings": "fibronectin substrate", "from_the_text": "as §2"}, "keratinocyte a5b1": {"molecular_target": "T1, keratinocyte a5b1 (Homo sapiens, UniProt P05556+P08648)", "T1 construct": "endogenous in cells; host or cells: keratinocytes", "T1 sequence (P08648 42-894 limits assumed)": "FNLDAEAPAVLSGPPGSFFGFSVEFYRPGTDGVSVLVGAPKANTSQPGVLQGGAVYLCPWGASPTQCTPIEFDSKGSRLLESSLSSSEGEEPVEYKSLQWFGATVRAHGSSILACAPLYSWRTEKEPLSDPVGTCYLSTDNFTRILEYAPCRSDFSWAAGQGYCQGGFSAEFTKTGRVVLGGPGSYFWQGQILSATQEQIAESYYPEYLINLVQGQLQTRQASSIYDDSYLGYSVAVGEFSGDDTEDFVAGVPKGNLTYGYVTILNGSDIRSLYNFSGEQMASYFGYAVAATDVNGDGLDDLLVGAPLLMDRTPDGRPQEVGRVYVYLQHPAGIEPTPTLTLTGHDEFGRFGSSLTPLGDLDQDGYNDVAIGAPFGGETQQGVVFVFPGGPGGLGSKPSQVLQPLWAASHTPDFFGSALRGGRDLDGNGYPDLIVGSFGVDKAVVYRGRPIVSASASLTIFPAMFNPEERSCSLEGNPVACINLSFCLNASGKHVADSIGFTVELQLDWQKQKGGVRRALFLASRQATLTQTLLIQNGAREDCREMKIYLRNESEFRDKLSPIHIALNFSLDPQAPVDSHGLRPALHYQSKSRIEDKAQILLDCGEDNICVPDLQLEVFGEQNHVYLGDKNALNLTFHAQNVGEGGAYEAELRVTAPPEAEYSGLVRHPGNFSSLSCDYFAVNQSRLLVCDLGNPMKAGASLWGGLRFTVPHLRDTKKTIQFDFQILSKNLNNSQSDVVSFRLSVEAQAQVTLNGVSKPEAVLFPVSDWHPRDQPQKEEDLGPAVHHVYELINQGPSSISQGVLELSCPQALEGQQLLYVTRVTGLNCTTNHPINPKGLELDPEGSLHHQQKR", "T1 sequence (P08648 895-1049 limits assumed)": "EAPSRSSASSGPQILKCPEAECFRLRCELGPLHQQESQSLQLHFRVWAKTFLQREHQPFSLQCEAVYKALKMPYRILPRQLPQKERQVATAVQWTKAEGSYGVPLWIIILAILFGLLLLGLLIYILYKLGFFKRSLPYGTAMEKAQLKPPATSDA", "T1 sequence (P05556 21-798)": "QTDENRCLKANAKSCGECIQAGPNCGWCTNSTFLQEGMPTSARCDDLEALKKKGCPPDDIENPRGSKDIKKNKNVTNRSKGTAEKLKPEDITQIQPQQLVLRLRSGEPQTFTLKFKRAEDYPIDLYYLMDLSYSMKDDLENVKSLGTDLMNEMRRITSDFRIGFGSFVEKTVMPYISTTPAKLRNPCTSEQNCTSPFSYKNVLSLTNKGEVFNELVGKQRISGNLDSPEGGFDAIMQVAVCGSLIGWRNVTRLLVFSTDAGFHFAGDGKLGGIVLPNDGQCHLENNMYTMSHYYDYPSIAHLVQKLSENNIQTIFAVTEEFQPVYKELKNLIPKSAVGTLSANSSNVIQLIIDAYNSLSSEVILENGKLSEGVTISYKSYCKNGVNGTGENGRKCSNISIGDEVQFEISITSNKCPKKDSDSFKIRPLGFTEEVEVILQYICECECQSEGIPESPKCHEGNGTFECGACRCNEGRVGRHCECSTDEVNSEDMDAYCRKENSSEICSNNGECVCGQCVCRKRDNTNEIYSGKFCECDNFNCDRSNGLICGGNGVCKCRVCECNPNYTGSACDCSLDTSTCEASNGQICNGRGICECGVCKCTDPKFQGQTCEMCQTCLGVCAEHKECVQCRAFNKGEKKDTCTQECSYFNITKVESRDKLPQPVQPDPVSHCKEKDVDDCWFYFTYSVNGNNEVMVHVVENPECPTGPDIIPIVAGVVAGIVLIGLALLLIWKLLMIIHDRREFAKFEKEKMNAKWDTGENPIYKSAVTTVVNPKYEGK", "test": "Direct interaction of ganglioside with keratinocyte a5b1", "type": "binding", "settings": "through carbohydrate moieties", "from_the_text": "as §1"}, "FAK": {"system": "FAK", "test": "Phosphorylation of FAK", "type": "cell-based", "from_the_text": "as §1"}, "integrin-linked kinase": {"system": "integrin-linked kinase", "test": "Phosphorylation of integrin-linked kinase", "type": "cell-based", "from_the_text": "as §1"}, "MMP-2": {"system": "MMP-2", "test": "MMP-2 expression and activity in keratinocyte-derived SCC12 cells", "type": "cell-based", "description": "(§3) In contrast, inhibitors of protein kinase C (PKC) decrease the expression of TIMP-1 in SCC12 cells without altering MMP-9 expression. […] When both activators of PKC and gangliosides GT1b or GD3 are incubated together with the SCC12 cells, no change in the expression or activity of MMP-2 is noted. These studies provide evidence that more highly sialylated gangliosides modulate MMP-2 expression and activity in keratinocytes through a mechanism that involves suppression of the PKC signaling pathway."}, "skin cells": {"system": "skin cells", "test": "Proliferation of skin cells", "type": "cell-based", "from_the_text": "One manifestation of basal cell and squamous cell cancers of the skin, psoriasis, and genetic disorders of skin overgrowth, such as certain forms of ichthyosis, is excessive proliferation of skin. In our experiments, we have noted that alterations in ganglioside content, whether by pharmacologic manipulation or endogenous alteration through gene therapy, also affect the growth of skin cells. […] We have now determined that a decrease in the same gangliosides would increase the proliferation of skin cells; in fact, we have determined that transfection of a sialidase gene that cleaves the sialic acid group(s) from all gangliosides results in total ganglioside depletion, and leads to increased proliferation of skin cells. […] We believe that a number of other gangliosides have similar effects, as described below, and could be used in therapeutic treatments."}, "[3]": {"molecular_target": "T2, epidermal growth factor receptor (Homo sapiens, UniProt P00533)", "T2 construct": "epidermal growth factor receptor in keratinocytes; endogenous in cells; host or cells: keratinocytes", "test": "Direct binding of ganglioside to the epidermal growth factor receptor in keratinocytes", "from_the_text": "(§4) The mechanism for the overgrowth of skin cells depleted of gangliosides and for the inhibition of growth of skin cells with increased ganglioside GM3 is decreased availability of the epidermal growth factor receptor for binding to its ligands (epidermal growth factor and transforming growth factor-α). […] Also affected are downstream components in the epidermal growth factor signaling transduction pathway, e.g. GM3 downregulates the phosphorylation of MAP kinase and PI3 kinase."}, "MAP kinase": {"system": "MAP kinase", "test": "Phosphorylation of MAP kinase (EGF signalling pathway)", "type": "cell-based", "from_the_text": "as §4"}, "PI3 kinase": {"system": "PI3 kinase", "test": "Phosphorylation of PI3 kinase (EGF signalling pathway)", "type": "cell-based", "from_the_text": "as §4"}, "TIMP-1": {"system": "TIMP-1", "test": "TIMP-1 expression in keratinocyte-derived cells", "type": "cell-based", "description": "as §3"}, "MMP-9": {"system": "MMP-9", "test": "MMP-9 expression and activity in keratinocyte-derived cells", "type": "cell-based", "description": "as §3"}, "integrin b1 [4]": {"molecular_target": "T3, integrin b1 (Homo sapiens, UniProt P05556)", "T3 sequence (P05556 21-798)": "as above", "T3 sequence (P08648 42-894 partner limits assumed)": "as the sequence (P08648 42-894 limits assumed) above", "T3 sequence (P08648 895-1049 partner limits assumed)": "as the sequence (P08648 895-1049 limits assumed) above", "test": "Binding of ganglioside to integrin b1", "from_the_text": "as §1"}, "integrin b1 [5]": {"molecular_target": "T3, integrin b1", "test": "Phosphorylation of integrin b1", "type": "cell-based", "from_the_text": "as §1"}, "[6]": {"system": "explant cultures from patients with psoriasis", "test": "Attachment of explant cultures from patients with psoriasis", "type": "cell-based", "from_the_text": "The interaction of a5b1 and fibronectin is considered critical for embryonic development of skin, healing of wounds and spread of cutaneous malignancies. In addition, it is known in the art that cells from patients with psoriasis have shown increased adherence to fibronectin and a decreased ability to undergo apoptosis. […] Integrin avb3 plays a vital role in the development and proliferation of blood vessels in skin; increased activity leads to neovascularization, while inhibition can inhibit new vessel formation. Thus, an increase in more complex skin gangliosides, particularly GT1b, may be novel agents for treating psoriasis or in inhibiting vascular-dependent processes, such as the rapid growth of hemangiomas in infants. In contrast, depletion of gangliosides (e.g., through increased local sialidase activity) may encourage wound healing, through increasing the migration of keratinocytes, increasing keratinocyte proliferation, and encouraging angiogenesis. Thus, the invention includes administering gangliosides including but not limited to GT1b and GD3, and other agents that affect the amount and action of these gangliosides, to control fibronectin interactions."}, "TIMP-2": {"system": "TIMP-2", "test": "TIMP-2 expression in keratinocyte-derived SCC12 cells", "type": "cell-based", "description": "as §3"}, "[7]": {"settings": "ganglioside incubated together with activators of PKC, SCC12 cells"}, "[8]": {"settings": "keratinocyte-derived SCC12 cells"}, "[9]": {"settings": "pharmacologic addition to normal keratinocyte-derived cells"}},
  "data": [
    {"substance": "GD2", "values": [
      {"measurement": "binding to integrin avb3", "setting": "Integrin avb3", "result": "binds"},
      {"measurement": "adhesion to vitronectin", "setting": "adhesion to vitronectin", "result": "limit the adhesion"}
    ]},
    {"substance": "GD3", "values": [
      {"measurement": "adhesion of keratinocytes and keratinocyte-derived cells to fibronectin", "setting": "[1]", "result": "inhibit"},
      {"measurement": "migration of keratinocytes and keratinocyte-derived cells on fibronectin", "setting": "[2]", "result": "inhibit"},
      {"measurement": "interaction with keratinocyte a5b1", "setting": "keratinocyte a5b1", "result": "direct interaction"},
      {"measurement": "phosphorylation of FAK", "setting": "FAK", "result": "inhibition of phosphorylation"},
      {"measurement": "phosphorylation of integrin-linked kinase", "setting": "integrin-linked kinase", "result": "inhibition of phosphorylation"},
      {"measurement": "binding to integrin avb3", "setting": "Integrin avb3", "result": "binds"},
      {"measurement": "adhesion to vitronectin", "setting": "adhesion to vitronectin", "result": "limit the adhesion"},
      {"measurement": "activity of MMP-2", "setting": "MMP-2; [7]", "result": "no change"},
      {"measurement": "expression of MMP-2", "setting": "MMP-2; [7]", "result": "no change"},
      {"measurement": "activity of MMP-2", "setting": "MMP-2; [8]", "result": "inhibit"},
      {"measurement": "expression of MMP-2", "setting": "MMP-2; [8]", "result": "inhibit"}
    ]},
    {"substance": "GM3", "values": [
      {"measurement": "proliferation of skin cells", "setting": "skin cells; pharmacologic addition of ganglioside", "result": "inhibit the proliferation"},
      {"measurement": "binding to the carbohydrate moieties of the epidermal growth factor receptor", "setting": "[3]", "result": "direct binding"},
      {"measurement": "phosphorylation of MAP kinase", "setting": "MAP kinase", "result": "downregulates"},
      {"measurement": "phosphorylation of PI3 kinase", "setting": "PI3 kinase", "result": "downregulates"},
      {"measurement": "expression of TIMP-1", "setting": "TIMP-1; [9]", "result": "marked suppression"},
      {"measurement": "activity of MMP-9", "setting": "MMP-9; [9]", "result": "without affecting"},
      {"measurement": "expression of MMP-9", "setting": "MMP-9; [9]", "result": "marked suppression"}
    ]},
    {"substance": "GT1b", "values": [
      {"measurement": "adhesion of keratinocytes and keratinocyte-derived cells to fibronectin", "setting": "[1]", "result": "inhibit"},
      {"measurement": "migration of keratinocytes and keratinocyte-derived cells on fibronectin", "setting": "[2]", "result": "inhibit"},
      {"measurement": "interaction with keratinocyte a5b1", "setting": "keratinocyte a5b1", "result": "direct interaction"},
      {"measurement": "phosphorylation of FAK", "setting": "FAK", "result": "inhibition of phosphorylation"},
      {"measurement": "phosphorylation of integrin-linked kinase", "setting": "integrin-linked kinase", "result": "inhibition of phosphorylation"},
      {"measurement": "binding to integrin b1", "setting": "integrin b1 [4]", "result": "able to bind"},
      {"measurement": "b1 phosphorylation", "setting": "integrin b1 [5]", "result": "inhibits"},
      {"measurement": "serine/threonine phosphorylation", "setting": "integrin b1 [5]; on binding of b1", "result": "inhibits"},
      {"measurement": "attachment of explant cultures", "setting": "[6]", "result": "clear inhibition of attachment"},
      {"measurement": "expression of TIMP-1", "setting": "TIMP-1; [9]", "result": "marked suppression"},
      {"measurement": "activity of MMP-9", "setting": "MMP-9; [9]", "result": "without affecting"},
      {"measurement": "expression of MMP-9", "setting": "MMP-9; [9]", "result": "marked suppression"},
      {"measurement": "activity of MMP-2", "setting": "MMP-2; [7]", "result": "no change"},
      {"measurement": "expression of MMP-2", "setting": "MMP-2; [7]", "result": "no change"},
      {"measurement": "activity of MMP-2", "setting": "MMP-2; [8]", "result": "inhibit"},
      {"measurement": "expression of MMP-2", "setting": "MMP-2; [8]", "result": "inhibit"}
    ]},
    {"substance": "PIP3 [reference compound]", "values": [
      {"measurement": "activity of MMP-2", "setting": "MMP-2; [8]", "result": "increased"},
      {"measurement": "expression of MMP-2", "setting": "MMP-2; [8]", "result": "increased"},
      {"measurement": "TIMP-2 expression", "setting": "TIMP-2", "result": "only slightly increase"}
    ]},
    {"substance": "concanavalin A [reference compound]", "values": [
      {"measurement": "activity of MMP-2", "setting": "MMP-2; [8]", "result": "increased"},
      {"measurement": "expression of MMP-2", "setting": "MMP-2; [8]", "result": "increased"},
      {"measurement": "TIMP-2 expression", "setting": "TIMP-2", "result": "only slightly increase"}
    ]},
    {"substance": "epidermal growth factor [reference compound]", "values": [
      {"measurement": "proliferation of skin cells", "setting": "skin cells; added to sialidase-transfected (ganglioside-depleted) cells in culture", "result": "further accentuated"},
      {"measurement": "expression of TIMP-1", "setting": "TIMP-1; SCC12 cells", "result": "does not affect"},
      {"measurement": "activity of MMP-9", "setting": "MMP-9; SCC12 cells", "result": "increases its activity"},
      {"measurement": "expression of MMP-9", "setting": "MMP-9; SCC12 cells", "result": "further increased"}
    ]}
  ]
}
